6 compounds from patent publication US20110281762A1, “High throughput screening for anaerobic microorganisms” (priority 2010, published 2011) can be followed below.

Assay [1] has as its system Bacteroides thetaiotaomicron (Bt). As to the kind of experiment: Growth of Bt in minimal medium with a fructose-based carbohydrate as only carbon source. The settings on record: substance as only carbon and energy source; for doubling time: Bt. The class given is cell-based. The source says: Bt upregulates its putative fructan PUL when grown on fructose-containing carbohydrates We inoculated minimal medium containing specific fructose-based carbohydrates as the only carbon and energy source with Bt to test if the bacterium is competent to grow on fructans. Bt grew on a broad range of fructose-based glycans, including free fructose, sucrose, levan (high MW fructose polymer with predominantly β2-6-linkages), and fructo-oligosaccharides (FOS; short-chain β2-1 polymers of 2-10 fructose units) (FIG. 1C). However, Bt grew poorly on inulin (β2-1 fructose polymer with an average degree of polymerization of ˜25), with growth only apparent three days after inoculation. Doubling times on simple monosaccharides and disaccharide were similar to one another.
(§1) Culturing bacteria. Bacteria were cultured in TYG and MM as described previously. The following bacteria were used: Bt (VPI-5482), B. caccae (ATCC-43185), B. ovatus (ATCC-8483), B. fragilis (NCTC-9343), B. uniformis (ATCC-8492), and B. vulgatus (ATCC-8482). Growth curves in MM were obtained using a Powerwave (Biotek) reading OD600 every 30 min from anaerobic cultures at 37° C.

The subject of another assay is Bt-ΔBT1754. Put plainly: Growth of isogenic mutant Bt-ΔBT1754 in minimal media. The class given is cell-based, Bacteroides thetaiotaomicron. The settings on record: fructose-based minimal media.
Excerpt: The hybrid two-component system BT1754 is required for efficient fructan utilization by Bt. We assessed the ability of an isogenic mutant of Bt lacking the BT1754 gene to grow in a panel of fructose-based minimal media (MM) to test if upregulation of the PUL was dependent upon the HTCS signaling sensor. An in-frame, unmarked deletion of BT1754 was constructed using a standard counter-selectable allele-exchange procedure. […] Complementation of this mutant was achieved by introducing the genomic fragment containing BT1754 and its 5′ intergenic upstream promoter region in trans.
as §1

Assay [2] addresses periplasmic domain of BT1754 (BT1754-PD; residues 29-343) (Bacteroides thetaiotaomicron, UniProt Q8A6X1). Put plainly: Isothermal calorimetry binding to the periplasmic domain of BT1754. The source says:
The periplasmic domain of the hybrid two-component system BT1754 binds to monomeric fructose. One of the key unanswered questions concerning the HTCS family, and many extracellular sensory systems, is the identity of the molecular triggers for signaling events. […] (FIG. 2B). […] As PBPs are known to bind small molecules such as sugars, we expressed the periplasmic domain of BT1754 (BT1754-PD; residues 29-343) in a recombinant form and tested for binding to a range of monosaccharides and fructan-derived oligosaccharides to see if direct interaction with a specific carbohydrate is the means of signal perception in BT1754.
Isothermal titration calorimetry. Measurements were carried out essentially as described previously, except that a Microcal VP-ITC machine was used, and proteins were dialyzed into 20 mM Tris-HCl, pH8.0. The assumption that n=1 for BT1762 binding to levan was based on the structure of the starch binding SusD.

Assay [3] concerns all six Bacteroides species. Put plainly: Growth of six Bacteroides species on fructose-based glycans. The class given is cell-based.
Excerpt: (§2) In all six Bacteroides species, the HTCS is adjacent to a predicted fructokinase, a putative inner membrane monosaccharide importer, and GH32-family glycoside hydrolases. In each genome, except that of B. vulgatus, the syntenic regions also contain a susC/susD homologous pair. […] All Bacteroides species tested, except B. vulgatus, were able to grow efficiently using one of the long-chain fructans, inulin or levan. The inability of B. vulgatus to grow on long-chain fructans is consistent with the absence of a susC/susD-like pair within its locus. B. caccae, B. ovatus, B. fragilis and B. uniformis can utilize inulin with efficiency similar to their use of glucose. This contrasts with Bt inulin use, which is only observed after three days (FIG. 5). Bt was the only species tested able to use levan, which was particularly striking when considering the overall similarity in PUL structure between Bt, B. caccae, and B. ovatus.
as §1

Another assay relates to B. caccae. Put plainly: Growth on long-chain fructan. The format is cell-based. The settings on record: efficiency similar to use of glucose.
Excerpt: as §2, §1

The subject of another assay is B. fragilis. Put plainly: Growth on long-chain fructan. The settings on record: efficiency similar to use of glucose. The class given is cell-based.
Excerpt: as §2, §1

In another assay the test system is B. ovatus. Put plainly: Growth on long-chain fructan. The format is cell-based. The settings on record: efficiency similar to use of glucose.
Excerpt: as §2, §1

The next assay concerns B. uniformis. As to the kind of experiment: Growth on long-chain fructan. The format is cell-based. The settings on record: efficiency similar to use of glucose.
Excerpt: as §2, §1

Another assay deals with Bt and B. vulgatus. As to the kind of experiment: Dietary inulin in gnotobiotic mice bi-associated with Bt and B. vulgatus, relative fecal proportion by qPCR. The format is in vivo, germ-free Swiss-Webster mice. The source says:
(§3) Two groups of 8-12-week old, germ-free mice were colonized with equivalent quantities (10^8 colony forming units, CFU) of Bt and B. caccae or Bt and B. vulgatus. Each mouse was maintained on a standard polysaccharide-rich diet for the first 7 days of colonization and then switched to a diet in which the sole polysaccharide was inulin (10% w/w) for an additional 14 days. Mice were individually housed throughout the experiment to ensure no cross inoculation could occur and bedding was changed every two days. Total bacterial colonization density was determined by assessing the CFUs in feces over 21 days. The change in each species' relative abundance before and after dietary inulin supplementation was assessed using species-specific primers in a quantitative PCR assay.
(§4) Bacterial colonization and density determination of germ-free mice. Germ-free Swiss-Webster mice were maintained in gnotobiotic isolators and fed an autoclaved standard diet (Purina LabDiet 5K67) or custom diet (Bio-Serv, http://bio-serv.com/), in accordance with A-PLAC, the Stanford IACUC. Mice were bi-associated using oral gavage (10^8 CFU of each bacterial species). Relative densities of bacteria were determined by qPCR using strain-specific primers.

Another assay relates to Bt and B. caccae. Put plainly: Dietary inulin in gnotobiotic mice bi-associated with Bt and B. caccae, relative fecal proportion by qPCR. The class given is in vivo, germ-free Swiss-Webster mice.
Excerpt: as §3
In the previous experiment, inulin was the sole polysaccharide in the diet. We wondered whether we would observe the same inulin-induced increase in B. caccae relative to Bt if other polysaccharides were also present in the diet. To test this, gnotobiotic mice were co-colonized with Bt and B. caccae and maintained on the standard diet with inulin supplementation in the water (1% w/v). Over the 14 days the mice ingested an average of 117±6 mg of inulin daily via the water (compared to 355±7 mg/day with the inulin diet). Fecal samples were tested by qPCR over the course of the 21-day experiment for relative levels of Bt or B. caccae.
We decided to feed mice a custom diet deficient in all polysaccharides and supplement inulin in the water to determine whether a lower dose of inulin in the absence of other polysaccharides was sufficient to provide B. caccae a competitive advantage over Bt in vivo. Under this experimental paradigm the mice consumed an average of 97 mg of inulin per day. After. 14 days on inulin-water supplementation, the proportion of B. caccae increased by 26±8% (FIG. 6D). […] The wide range of polysaccharides present in the standard diet allows Bt to compete effectively with B. caccae even in the presence of inulin.
as §4
In general terms: Quantitative PCR measures a nucleic acid by following its amplification.

A further assay relates to B. vulgatus. As to the kind of experiment: Growth on long-chain fructan. The format is cell-based.
Excerpt: as §2, with “Bt was the only species tested able to use levan, which was particularly striking when considering the overall similarity in PUL structure between Bt, B. caccae, and B. ovatus.” left out
Genomic content of Bacteroides species predicts changes in microbiota composition induced by an inulin-based diet. The differences in ability to utilize fructans between the Bacteroides species implies that the relative success of a species within a gut ecosystem may be determined, in part, by the abundance and type of fructan in the host diet. […] We constructed defined two-member communities of Bacteroides species within the intestines of gnotobiotic mice to test how model microbiotas respond in vivo to dietary inulin, which, unlike levan, is available in pure form in quantities sufficient to conduct such a study. […]

[4] abbreviates: after two weeks on inulin diet (day 21), n=7 mice.

Sequence of periplasmic domain of BT1754 (BT1754-PD; residues 29-343) (Q8A6X1 entry or part of it, change not shown): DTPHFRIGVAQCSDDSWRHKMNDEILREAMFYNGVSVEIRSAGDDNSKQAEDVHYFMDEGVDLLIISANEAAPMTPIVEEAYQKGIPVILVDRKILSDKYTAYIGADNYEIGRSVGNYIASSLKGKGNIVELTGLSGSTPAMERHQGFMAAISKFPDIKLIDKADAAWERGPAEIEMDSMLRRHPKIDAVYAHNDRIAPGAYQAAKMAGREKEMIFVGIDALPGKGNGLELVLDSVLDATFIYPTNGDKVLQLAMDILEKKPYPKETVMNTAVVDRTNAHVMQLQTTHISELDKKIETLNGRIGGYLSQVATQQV

For `O=C(CO)[C@@H](O)[C@H](O)[C@H](O)CO` [fructose], the “growth of Bt” value in assay [1] is listed as “grew on”. For the same compound, the “growth of Bt-ΔBT1754” value in the assay on Bt-ΔBT1754 is on record as “retarded growth”. The dissociation constant Kd (usually the equilibrium constant for the complex coming apart) in assay [2] was approximately 2000 nM. The growth entry in assay [3] is “competent for growth”.
With `O=C[C@H](O)[C@H](O)[C@H](O)CO` [ribose], the “interaction with BT1754-PD” value in assay [2] (isothermal calorimetry) is reported as “does not interact”.
`OC[C@H]1O[C@@](CO)(O[C@H]2O[C@H](CO)[C@@H](O)[C@H](O)[C@H]2O)[C@@H](O)[C@@H]1O` [sucrose]: the “growth of Bt” value in [1] is “grew on”. Further, the “growth of Bt-ΔBT1754” value in the assay on Bt-ΔBT1754 is recorded as “retarded growth”. Besides, the growth result in assay [3] is listed as “competent for growth”.
On to fructo-oligosaccharides [FOS], for which, in assay [1], the doubling time was 5.6 h and the “growth of Bt” value is “grew on”. In the assay on Bt-ΔBT1754, the “growth of Bt-ΔBT1754” value is on record as “failed to grow”. Besides, the growth result in [3] is “competent for growth”.
Compound inulin returned a doubling time in assay [1] of 96.4 h. Further, the “growth of Bt” value in [1] is “grew poorly”. The “growth of Bt-ΔBT1754” value in the assay on Bt-ΔBT1754 is reported as “failed to grow”. The inulin utilization result in the assay with B. caccae is on record as “can utilize”; in the assay on B. fragilis, “can utilize”; in the assay with B. ovatus, “can utilize”; with B. uniformis, “can utilize”; in the assay on B. vulgatus it was “unable to utilize”. Also, the “change in community composition” value in the assay with Bt and B. vulgatus (after 6 days on inulin-based diet) is “did not exhibit any significant trend”. Besides, the Bt abundance in the assay with Bt and B. vulgatus (day 21, inulin enriched diet, 74±3% on day 6, p=0.1, n=3 mice) was determined as 84±5%. For the same compound, the “B. caccae proportion of community” value in the assay on Bt and B. caccae (setting [4]) turned out to be 51±6%; in the assay with Bt and B. caccae (six days after change to inulin-based diet (10% w/w)), 20±4%. The “Bt proportion of community” value is reported as “approximately 49±6%” with Bt and B. caccae (setting [4]); 80±4% in the assay with Bt and B. caccae (six days after change to inulin-based diet (10% w/w, sole polysaccharide), 87±3% before switch). The “increase in proportion of B. caccae” value with Bt and B. caccae (custom diet deficient in all polysaccharides, inulin in the water, 14 days) is recorded as 26±8%; in the assay on Bt and B. caccae (inulin-only diet experiment, day 6 to day 21) it was 36±7%. Further, in the assay with Bt and B. caccae (standard diet with inulin in the water (1% w/v), 14 days), the “change in relative colonization of Bt and B. caccae versus controls” value is “no statistical difference”.
Consider levan, for which, in assay [1], the doubling time was 2.7 h and the “growth of Bt” value is “grew on”. Further, the “growth of Bt-ΔBT1754” value with Bt-ΔBT1754 is reported as “failed to grow”.
